From patent US20250319080A1, “BIO[…] FORMULATIONS AND METHODS OF USE AND MANUFACTURE THEREOF” (PURDUE RESEARCH FOUNDATION, priority 2022, published 2025)
In brackets after ≈: the same amount, converted by molar mass.

Assay: Solubility of buprenorphine FB in release media
Format: physicochemical
Details: 48 hours
Protocol: The solubility of buprenorphine FB was determined in PBS with 0.05% Tween 20 (PBST) and 0.5% w/v sodium dodecyl sulfate (SDS) in water. The solubility was determined by placing excess buprenorphine FB into the media mentioned above at 37° C. and shaking at 40 RPM for 48 hours. After 48 hours, a sample was taken and centrifuged at 15,000 RPM for 5 minutes. The supernatant was then collected and diluted with the same medium, and the concentration was determined using high-performance liquid chromatography.

CO[C@@]12CC[C@@]3(C[C@@H]1[C@](C)(O)C(C)(C)C)[C@H]1Cc4ccc(O)c5c4[C@@]3(CCN1CC1CC1)[C@H]2O5 [Buprenorphine FB, Buprenorphine free base]
Solubility in 0.5% SDS (0.5% w/v sodium dodecyl sulfate in water, 37° C.): 336 µg/mL (≈ 718 µM)
Solubility in PBST (PBS with 0.05% Tween 20, 37° C.): 8.8 µg/mL (≈ 18.8 µM)
